Reference: PubChem BioAssay AID1963870 (Molecular Pharmacology Branch, DTP, NCI, 2024)

Test system: 292921-168-R-J2-PDC KRAS tumor spheroid viability
Experiment: Anticancer human tumor 292921-168-R-J2-PDC patient-derived pancreatic carcinoma cell line growth inhibition [KRAS2]
Details: spheroids with HUVEC and MSC; for IC50: curve of first compound; for viability, T/C: stronger effect = lower value
Method in brief: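 KRAS-mutant tumor cells were grown as spheroids with HUVEC endothelial cells and human MSCs as stroma. Targeted agents were tested alone and with KRAS pathway inhibitors. Doses started at or near clinical Cmax, or 10 microM, descending half-log.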

[1] = second compound 0.1 µM, first compound 0.01 µM
[2] = second compound 0.1 µM, first compound 0.0316 µM
[3] = second compound 0.1 µM, first compound 0.1 µM
[4] = second compound 0.316 µM, first compound 0.01 µM
[5] = second compound 0.316 µM, first compound 0.0316 µM
[6] = second compound 0.316 µM, first compound 0.1 µM
[7] = second compound 1 µM, first compound 0.01 µM
[8] = second compound 1 µM, first compound 0.0316 µM
[9] = second compound 1 µM, first compound 0.1 µM
[10] = second compound 3.16 µM, first compound 0.01 µM
[11] = second compound 3.16 µM, first compound 0.0316 µM
[12] = second compound 3.16 µM, first compound 0.1 µM
[13] = second compound 10 µM, first compound 0.0316 µM
[14] = second compound 10 µM, first compound 0.1 µM
[15] = second compound 0.1 µM, first compound 0.316 µM
[16] = second compound 0.1 µM, first compound 1 µM
[17] = second compound 0.1 µM, first compound 3.16 µM
[18] = second compound 0.316 µM, first compound 0.316 µM
[19] = second compound 0.316 µM, first compound 1 µM
[20] = second compound 0.316 µM, first compound 3.16 µM
[21] = second compound 1 µM, first compound 0.316 µM
[22] = second compound 1 µM, first compound 1 µM
[23] = second compound 1 µM, first compound 3.16 µM
[24] = second compound 3.16 µM, first compound 0.316 µM
[25] = second compound 3.16 µM, first compound 1 µM
[26] = second compound 3.16 µM, first compound 3.16 µM
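Note: drug exposure lasted seven days after spheroids formed for three days.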
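Throughout, for viability, T/C: percent of DMSO vehicle control viability which is 100%.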

Work on `CN(C)C/C=C/C(=O)Nc1cc2c(Nc3ccc(F)c(Cl)c3)ncnc2cc1O[C@H]1CCOC1` + CNCc1ccccc1-c1csc(C(C)Nc2nc(C)nc3cc(OC)c(OC)cc23)c1 yielded an IC50 (second compound 0.1 µM) of over 100 nM, an IC50 (second compound 0.316 µM) of over 100 nM and an IC50 (second compound 1 µM) of 48.9 nM. For the same compound, the IC50 (second compound 3.16 µM) was 1.93 nM, the IC50 (second compound 10 µM) was under 0.316 nM and the viability, T/C (second compound 0.1 µM, first compound 0.000316 µM) was 90.9%. It also gave a viability, T/C (second compound 0.1 µM, first compound 0.001 µM) of 86.3%, a viability, T/C (second compound 0.1 µM, first compound 0.00316 µM) of 72.4% and a viability, T/C [1] of 70.3%. The viability, T/C [2] was 64.5%, the viability, T/C [3] was 57.5% and the viability, T/C (second compound 0.316 µM, first compound 0.000316 µM) was 82.4%. For the same compound, the viability, T/C (second compound 0.316 µM, first compound 0.001 µM) was 80.6%, the viability, T/C (second compound 0.316 µM, first compound 0.00316 µM) was 70.6% and the viability, T/C [4] was 71.1%. For the same compound, the viability, T/C [5] was 58%, the viability, T/C [6] was 55% and the viability, T/C (second compound 1 µM, first compound 0.000316 µM) was 74.4%. It also gave a viability, T/C (second compound 1 µM, first compound 0.001 µM) of 62%, a viability, T/C (second compound 1 µM, first compound 0.00316 µM) of 60% and a viability, T/C [7] of 59.6%. For the same compound, the viability, T/C [8] was 56.1%, the viability, T/C [9] was 43.7% and the viability, T/C (second compound 3.16 µM, first compound 0.000316 µM) was 105%. It also gave a viability, T/C (second compound 3.16 µM, first compound 0.001 µM) of 91.1%, a viability, T/C (second compound 3.16 µM, first compound 0.00316 µM) of 0.17% and a viability, T/C [10] of 0.11%. The viability, T/C [11] was 74.7%, the viability, T/C [12] was 1.26% and the viability, T/C (second compound 10 µM, first compound 0.000316 µM) was 0.13%. For the same compound, the viability, T/C (second compound 10 µM, first compound 0.001 µM) was 0.13%, the viability, T/C (second compound 10 µM, first compound 0.00316 µM) was 0.09% and the viability, T/C (second compound 10 µM, first compound 0.01 µM) was 0.08%. The viability, T/C [13] was 0.13% and the viability, T/C [14] was 0.17%.

`CC1COCCN1c1cc(-c2ccnn2C)c2ccnc(-c3ccn[nH]3)c2n1` (stereo not given) + C=CC(=O)N1CCN(c2nc(OCC3CCCN3C)nc3c2CCN(c2cccc4cccc(C)c24)C3)CC1CC#N gave an IC50 (second compound 0.0316 µM) of under 10 nM, an IC50 (second compound 0.1 µM) of under 10 nM and an IC50 (second compound 0.316 µM) of under 10 nM. The IC50 (second compound 1 µM) was under 10 nM, the IC50 (second compound 3.16 µM) was under 10 nM and the viability, T/C (second compound 0.0316 µM, first compound 0.01 µM) was 38.6%. It also gave a viability, T/C (second compound 0.0316 µM, first compound 0.0316 µM) of 16.4%, a viability, T/C (second compound 0.0316 µM, first compound 0.1 µM) of 11.5% and a viability, T/C (second compound 0.0316 µM, first compound 0.316 µM) of 10%. It also gave a viability, T/C (second compound 0.0316 µM, first compound 1 µM) of 11.9%, a viability, T/C (second compound 0.0316 µM, first compound 3.16 µM) of 12.6% and a viability, T/C [1] of 33.6%. The viability, T/C [2] was 14%, the viability, T/C [3] was 9.02% and the viability, T/C [15] was 9.07%. It also gave a viability, T/C [16] of 11%, a viability, T/C [17] of 11.7% and a viability, T/C [4] of 22.6%. It also gave a viability, T/C [5] of 11%, a viability, T/C [6] of 7.47% and a viability, T/C [18] of 8.07%. For the same compound, the viability, T/C [19] was 9.3%, the viability, T/C [20] was 10.8% and the viability, T/C [7] was 8.66%. The viability, T/C [8] was 6.29%, the viability, T/C [9] was 5.9% and the viability, T/C [21] was 6.42%. For the same compound, the viability, T/C [22] was 6.98%, the viability, T/C [23] was 7.65% and the viability, T/C [10] was 0.1%. For the same compound, the viability, T/C [11] was 0.09%, the viability, T/C [12] was 0.08% and the viability, T/C [24] was 0.09%. For the same compound, the viability, T/C [25] was 0.27% and the viability, T/C [26] was 0.15%.

In the case of `CC1(C)CCC(CN2CCN(c3ccc(C(=O)NS(=O)(=O)c4ccc(NCC5CCOCC5)c([N+](=O)[O-])c4)c(Oc4cnc5[nH]ccc5c4)c3)CC2)=C(c2ccc(Cl)cc2)C1` + CC1OCC2(CCN(c3cnc(Sc4ccnc(N)c4Cl)c(N)n3)CC2)C1N, the IC50 (second compound 0.1 µM) is reported as 1610 nM, the IC50 (second compound 0.316 µM) is reported as 1430 nM and the IC50 (second compound 1 µM) is reported as under 31.6 nM. For the same compound, the IC50 (second compound 3.16 µM) was under 31.6 nM, the IC50 (second compound 10 µM) was under 31.6 nM and the viability, T/C [2] was 77.7%. The viability, T/C [3] was 81.6%, the viability, T/C [15] was 71.8% and the viability, T/C [16] was 69.8%. It also gave a viability, T/C [17] of 21.9%, a viability, T/C (second compound 0.1 µM, first compound 10 µM) of 11.7% and a viability, T/C [5] of 59.7%. It also gave a viability, T/C [6] of 65.9%, a viability, T/C [18] of 64.2% and a viability, T/C [19] of 58.9%. It also gave a viability, T/C [20] of 29.6%, a viability, T/C (second compound 0.316 µM, first compound 10 µM) of 7.43% and a viability, T/C [8] of 46.5%. For the same compound, the viability, T/C [9] was 51.4%, the viability, T/C [21] was 46.1% and the viability, T/C [22] was 42.9%. For the same compound, the viability, T/C [23] was 17.8%, the viability, T/C (second compound 1 µM, first compound 10 µM) was 7.41% and the viability, T/C [11] was 38.8%. For the same compound, the viability, T/C [12] was 40.2%, the viability, T/C [24] was 37.6% and the viability, T/C [25] was 39%. It also gave a viability, T/C [26] of 14.1%, a viability, T/C (second compound 3.16 µM, first compound 10 µM) of 7.38% and a viability, T/C [13] of 33.3%. It also gave a viability, T/C [14] of 32.8%, a viability, T/C (second compound 10 µM, first compound 0.316 µM) of 33.2% and a viability, T/C (second compound 10 µM, first compound 1 µM) of 34.7%. For the same compound, the viability, T/C (second compound 10 µM, first compound 3.16 µM) was 13.1% and the viability, T/C (second compound 10 µM, first compound 10 µM) was 1.65%.
